# From patent publication EP0506011A1, “Tetrazoleacetic acid derivatives having aldose reductase inhibitory activity” (Wakamoto Pharmaceutical Co., Ltd., priority 1991, dated 1992)
# pIC50: −log10 of the molar value.
# Biological target: T1, aldose reductase (Rattus norvegicus, UniProt P07943)
# T1 construct: The lenses were homogenized in 3 volumes of 135 mM sodium potassium phosphate buffer (pH 7.0) and centrifuged; from tissue; host or cells: crystalline lenses of six-week-old male SD rats
# Experiment: Test for Examining Aldose Reductase Inhibitory Effect (rat lens enzyme, DL-glyceraldehyde substrate, absorbance at 340 nm)
# Format: biochemical
# Conditions: aldose reductase solution from crystalline lenses of SD rats; DL-glyceraldehyde 10 mM; 30°C for 5 minutes; pH 5.2; compound at 10 ⁻⁶ M, 10⁻⁷ M or 10 ⁻⁸ M; read-out: IC₅₀
# Protocol: Six-week-old male SD rats were anesthetized with ether and killed. Then their crystalline lenses were immediately removed and stored at -80 °C . […] The resulting supernatant was dialyzed overnight against 0.05 M sodium chloride solution to obtain an aldose reductase solution. All operations were conducted at 4 °C and the enzyme solution was stored at -80°C .
# More specifically, 0.1 ml of DL-glyceraldehyde (final concentration: 10 mM) was added to 0.9 ml of 100 mM sodium potassium phosphate buffer (pH 5.2) which contained lithium sulfate (final concentration: 400 mM), reduced nicotinamide adenine dinucleotide phosphate (final concentration: 0.15 mM), the enzyme solution, and the compound to be evaluated (final concentration: 10 ⁻⁶ M, 10⁻⁷ M or 10 ⁻⁸ M), and then the reaction was conducted at 30°C for 5 minutes. During the reaction, the change in the absorbance at 340 nm with time was monitored.
# The maximum reducing rate of the absorbance (U) during the reaction was determined. By subtracting, from this value, the maximum reducing rate (U₀) at 340 nm of the reaction solution before the addition of the substrate (DL-glyceraldehyde), the reaction rate (V = U - U₀) was calculated as a true reaction rate in the presence of the compound to be tested. The same procedure was repeated except for the absence of the compound to be tested. A true reaction rate (V₀) in case the enzyme was not inhibited was calculated (V₀ = U¹ - U₀¹). The aldose reductase inhibitory activity of the test compounds was determined according to the following formula: Rate of Inhibition (%) = (V₀ - V)/V₀ x 100 [formula]
row,SMILES,pIC50
1,"O=C(O)Cn1nnnc1-c1cccc2sccc12 [Example 2-3, [5-(4-Benzothienyl)tetrazol-1-yl]acetic acid]",7.59
2,"O=C(O)Cn1nnnc1-c1ccc2ccsc2c1 [Example 2-4, [5-(6-Benzothienyl)tetrazol-1-yl]acetic acid]",7.47
3,"Cc1c(-c2nnnn2CC(=O)O)sc2ccccc12 [Example 2-5, [5-(3-Methyl-2-benzothienyl)tetrazol-1-yl]acetic acid]",7.49
4,"O=C(O)Cn1nnnc1-c1sc2ccccc2c1Cl [Example 2-6, [5-(3-Chloro-2-benzothienyl)tetrazol-1-yl]acetic acid]",7.46
5,"COc1ccc2sc(-c3nnnn3CC(=O)O)cc2c1 [Example 2-10, [5-(5-Methoxy-2-benzothienyl)tetrazol-1-yl]acetic acid]",7.55
6,"CCCCOc1ccc2cc(-c3nnnn3CC(=O)O)sc2c1 [Example 2-12, [5-(6-Butoxy-2-benzothienyl)tetrazol-1-yl]acetic acid]",7.62
7,"COc1cc2cc(-c3nnnn3CC(=O)O)sc2c(OC)c1OC [Example 2-14, [5-(5,6,7-Trimethoxy-2-benzothienyl)tetrazol-1-yl]acetic acid]",7.16
8,"O=C(O)Cn1nnnc1-c1cc2ccccc2o1 [Example 2-15, [5-(2-Benzofuryl)tetrazol-1-yl]acetic acid]",7.34
9,"Cc1c(-c2nnnn2CC(=O)O)oc2ccccc12 [Example 2-16, [5-(3-Methyl-2-Benzofuryl)tetrazol-1-yl]acetic acid]",7.17
10,"COc1ccc2c(C)c(-c3nnnn3CC(=O)O)oc2c1 [Example 2-17, [5-(6-Methoxy-3-methyl-2-benzofuryl)tetrazol-1-yl]acetic acid]",6.80

# Further compounds by rising pIC50, results first:
row,pIC50,SMILES
1,7.62,"O=C(O)Cn1nnnc1-c1cc2ccccc2s1 [Example 2-1, [5-(2-Benzothienyl)tetrazol-1-yl]acetic acid]"
2,7.66,"Cc1cccc2sc(-c3nnnn3CC(=O)O)cc12 [Example 2-7, [5-(4-Methyl-2-benzothienyl)tetrazol-1-yl]acetic acid]"
3,7.68,"COc1ccc2cc(-c3nnnn3CC(=O)O)sc2c1 [Example 2-11, [5-(6-Methoxy-2-benzothienyl)tetrazol-1-yl]acetic acid]"
4,7.70,"COc1cccc2sc(-c3nnnn3CC(=O)O)cc12 [Example 2-9, [5-(4-Methoxy-2-benzothienyl)tetrazol-1-yl]acetic acid]"
5,7.72,"O=C(O)Cn1nnnc1-c1csc2ccccc12 [Example 2-2, [5-(3-Benzothienyl)tetrazol-1-yl]acetic acid]"
6,7.74,"Cc1ccc2cc(-c3nnnn3CC(=O)O)sc2c1 [Example 2-8, [5-(6-Methyl-2-benzothienyl)tetrazol-1-yl]acetic acid]"
7,7.74,"CC(C)c1ccc2cc(-c3nnnn3CC(=O)O)sc2c1 [Example 2-13, [5-(6-Isopropyl-2-benzothienyl)tetrazol-1-yl]acetic acid]"
